In US20260284208A1, “SYSTEM” (Oxford University Innovation Limited, priority 2023, published 2026):

Experiments:
Type in all cases: cell-based
[1] = target: wild-type IKZF1/IKZF3 ZF degron sequence (WT) fused to eGFP (Homo sapiens, UniProt Q96SW2+Q9UKT9); assay: GFP degradation flow cytometry assay (GFP:mCherry ratio), WT ZF-eGFP; conditions: for percent degradation of WT ZF-GFP at 10 µM: 18 h, Jurkat, flow cytometry concentration curve; for degradation ability against the WT ZF sequence: flow cytometry assay
Chain of wild-type IKZF1/IKZF3 ZF degron sequence (WT) fused to eGFP (Q9UKT9 130-189): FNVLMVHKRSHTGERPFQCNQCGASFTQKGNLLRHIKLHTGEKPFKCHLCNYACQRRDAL
Chain of wild-type IKZF1/IKZF3 ZF degron sequence (WT) fused to eGFP (Q96SW2 whole entry, the tested form may be a part): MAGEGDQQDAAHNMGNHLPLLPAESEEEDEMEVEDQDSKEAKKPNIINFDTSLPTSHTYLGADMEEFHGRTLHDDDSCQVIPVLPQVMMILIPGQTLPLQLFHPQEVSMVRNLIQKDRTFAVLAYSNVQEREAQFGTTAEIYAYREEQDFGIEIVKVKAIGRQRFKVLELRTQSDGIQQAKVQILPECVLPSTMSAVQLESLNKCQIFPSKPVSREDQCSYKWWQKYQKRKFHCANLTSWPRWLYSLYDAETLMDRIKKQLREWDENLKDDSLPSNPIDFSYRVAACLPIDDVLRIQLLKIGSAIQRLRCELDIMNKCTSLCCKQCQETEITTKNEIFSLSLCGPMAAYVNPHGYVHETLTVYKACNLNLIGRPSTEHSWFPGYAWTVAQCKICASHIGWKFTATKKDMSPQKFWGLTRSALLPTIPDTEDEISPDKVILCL
Procedure: FIG. 2. A. A plasmid containing a ZF degron fused to GFP in the same gene as mCherry. Jurkats that have been lentivirally transduced with this plasmid will express ZF-GFP and mCherry at a consistent ratio. B Addition of an IMID such as pomalidomide will induce GFP degradation via the degron's functionality. C Incubation with an IMID produces a degradation curve.
(§1) Jurkat cells were added to 96 well U-bottom assay plates (Falcon) at 1×10^5 cells per well and treated with compounds for 18 hours at 37° C. and 5% CO2. Cells were stained with 1 μg/mL DAPI (ThermoFisher) and acquired on a Cytoflex S (Beckman Coulter). Data was analysed using FlowJo 10.8.1 (BD).
To test these compounds, we used a flow cytometry assay (FIG. 2) employing an Jurkat cells—an immortalised human blood cell line—that had been stably transduced with a plasmid using a lentiviral vector. This plasmid contained a gene for a 60 amino acid ZF region derived from IKZF3 fused to eGFP, separated from mCherry by an internal ribosomal entry site (IRES). This meant that these cells would express ZF-GFP and mCherry in consistent relative amounts, so under normal conditions the ratio of GFP:mCherry would remain the same regardless of overall expression levels. However, upon incubation with an IMID, ZF-GFP would be selectively degraded, altering this ratio and thus providing an easily measurable proxy for level of ZF degradation.
We carried out three biological replicates of this assay for each IMID analogue with a 0.1% DMSO control and six concentrations of IMID (1 nM, 10 nM, 100 nM, 1 μM, 10 μM and 100 μM) for each compound. This yielded a degradation curve for each compound, from which a pDC50 value could be derived, indicating how potent a degrader each of our compound were relative to thalidomide, lenalidomide and pomalidomide.

[2] = target: Q147A mutated ZF (ANQS) fused to eGFP (Homo sapiens, UniProt Q96SW2+Q9UKT9, Q147A); assay: GFP degradation flow cytometry assay, Q147A mutant ZF-eGFP; conditions: for orthogonality index value (from pDC50 Q147A and pDC50 WT): Q147A vs WT ZF, compounds with Q147A Dmax >=0.4 dismissed, 1080 min; for degradation against Q147A relative to WT: flow cytometry, pDC50 comparison
Chain of Q147A mutated ZF (ANQS) fused to eGFP (Q9UKT9 130-189 Q147A): as the sequence (Q9UKT9 130-189) above, with Q18A counted along it
Chain of Q147A mutated ZF (ANQS) fused to eGFP (Q96SW2 whole entry, the tested form may be a part): as the sequence (Q96SW2 whole entry, the tested form may be a part) above
Procedure: as §1
To probe the potential for orthogonality in a bump-and-hole context, the same assay was carried out again on all compounds, but this time with a Q147A mutated ZF.
The pDC50 values derived from this screen were used along with the pDC50 values from the WT screen to assign an orthogonality index value to every compound according the following equation: […]

[3] = target: endogenous IKZF3 in Jurkat cells (Homo sapiens, UniProt Q96SW2+Q9UKT9); assay: Immunoblotting of endogenous IKZF3; conditions: for endogenous IKZF3 level relative to DMSO control (Western blot): 1 μM or 10 μM, untransduced Jurkat cells; for ability to degrade endogenous IKZF3 (Western blot): even at 10 uM
Chain of endogenous IKZF3 in Jurkat cells (Q9UKT9 whole entry): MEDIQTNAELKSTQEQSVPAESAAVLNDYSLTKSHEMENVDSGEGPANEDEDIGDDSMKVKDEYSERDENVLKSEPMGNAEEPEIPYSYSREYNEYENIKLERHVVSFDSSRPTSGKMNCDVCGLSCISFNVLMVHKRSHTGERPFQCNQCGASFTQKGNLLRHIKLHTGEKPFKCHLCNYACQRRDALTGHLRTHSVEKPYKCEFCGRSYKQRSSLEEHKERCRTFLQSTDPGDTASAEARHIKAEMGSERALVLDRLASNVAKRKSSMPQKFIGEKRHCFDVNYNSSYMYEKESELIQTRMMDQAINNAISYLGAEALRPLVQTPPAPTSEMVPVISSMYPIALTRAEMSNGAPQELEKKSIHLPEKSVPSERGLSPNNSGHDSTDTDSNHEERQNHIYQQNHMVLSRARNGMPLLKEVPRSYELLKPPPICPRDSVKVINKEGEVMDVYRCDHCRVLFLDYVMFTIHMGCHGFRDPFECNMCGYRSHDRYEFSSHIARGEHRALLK
Chain of endogenous IKZF3 in Jurkat cells (Q96SW2 whole entry): as the sequence (Q96SW2 whole entry, the tested form may be a part) above
Procedure: Jurkat cells were added to T25 flasks (Falcon) at 2×10^6 cells per flask and were incubated with compounds for 18 hours at 37° C. and 5% CO2. Cells were lysed in buffer containing 9 M urea (Sigma), 75 mM Tris-HCl (Sigma), 0.15 M β-mercaptoethanol (Merck) and 10× diluted protease inhibitor cocktail (Merck). Cells lysates were sonicated for 10 seconds 3 times, centrifuged at 13000 rpm for 10 minutes at 4° C. and the supernatants were transferred into fresh tubes. Protein concentrations were measured using a Pierce BCA Protein Assay Kit (Thermo). Proteins were boiled in Laemmli sample buffer (Bio-Rad) for 5 minutes at 100° C. and separated by SDS-PAGE (7.5% Mini-PROTEAN TGX gels, Bio-Rad) and compared to the PageRuler Prestained Protein Ladder (Thermo). Semi-dry blotting was done on a Trans-Blot Turbo Transfer System (Bio-Rad) with the Trans-Blot Turbo RTA Mini 0.2 μm PVDF Transfer Kit (Bio-Rad) using the default mixed molecular weight mode. Membranes were blocked in 5% non-fat dry milk (Bio Rad) in TBS-T. Primary IKZF3 (D1C1E, Cell Signaling Technology Europe), eGFP (F56-6A1.2.3, Thermo) and vinculin (E1E9V, Cell Signaling Technology Europe and sc-25336, Santa Cruz Biotechnologies) antibodies were diluted 1000×, 500× and 50× respectively in 5% non-fat dry milk in TBS-T. Membranes were incubated with primary antibodies overnight at 4° C., washed with TBS-T 3 times, incubated with HRP conjugated secondary antibodies (Promega) for 1 hour at room temperature, washed with TBS-T 3 times and imaged with Clarity Western ECL substrate (Bio-Rad). Membranes were scanned with a Bio-Rad ChemiDoc XRS+ Imaging System (Bio-Rad) and signal intensities were quantified using Image Lab software (Bio Rad). Band densitometry was assessed, normalized to vinculin bands, and reported as percentage of the DMSO control lane.

SMILES | percent degradation of WT ZF-GFP at 10 µM [1] | degradation ability against the WT ZF sequence [1] | orthogonality index value (from pDC50 Q147A and pDC50 WT) [2] | degradation against Q147A relative to WT [2] | endogenous IKZF3 level relative to DMSO control (Western blot) [3] | level of endogenous IKZF3 (Western blot) ([3]; 10 μM, Jurkats transduced with AEVK-GFP) | ability to degrade endogenous IKZF3 (Western blot) [3]
CC(C)(C)c1ccc2c(c1)C(=O)N(C1CCC(=O)NC1=O)C2=O (stereo not shown) [A63, 5-(tert-butyl)-2-(2,6-dioxopiperidin-3-yl)isoindoline-1,3-dione] | 60 to 70% | some degradation ability | > 10 | improved degradation | unaffected | remains unaffected | neither A63 nor B08 possess ability to degrade endogenous IKZF3
CN1CCN(c2ccc3c(c2)C(=O)N(C2CCC(=O)NC2=O)C3=O)CC1 (stereo not shown) [B08, 2-(2,6-dioxopiperidin-3-yl)-5-(4-methylpiperazin-1-yl)isoindoline-1,3-dione] | 60 to 70% | some degradation ability | > 10 | improved degradation | unaffected | – | neither A63 nor B08 possess ability to degrade endogenous IKZF3
